This is an account of results in ChEMBL document CHEMBL1629509, “Design, synthesis and inhibitory activity against Mycobacterium tuberculosis thymidine monophosphate kinase of acyclic nucleoside analogues with a distal imidazoquinolinone” (Eur J Med Chem, 2010).

Data set [1] is described as follows: Solubility of the compound in water. The format is physicochemical.
In data set [2] the target is T1, Thymidylate kinase (Mycobacterium tuberculosis, UniProt P9WKE1).
T1 sequence (P9WKE1 whole entry): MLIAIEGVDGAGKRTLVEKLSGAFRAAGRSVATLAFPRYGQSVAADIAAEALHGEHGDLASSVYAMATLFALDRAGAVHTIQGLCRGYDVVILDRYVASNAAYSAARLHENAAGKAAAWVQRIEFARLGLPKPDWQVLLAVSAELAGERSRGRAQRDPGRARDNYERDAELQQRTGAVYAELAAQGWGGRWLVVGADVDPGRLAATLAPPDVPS
In words: Inhibition of Mycobacterium tuberculosis Thymidine monophosphate kinase by spectrophotometry.

Data set [3] relates to Mycolicibacterium smegmatis. As to the kind of experiment: Antimycobacterial activity against Mycobacterium smegmatis mc2155 assessed as growth inhibition at 160 ug/ml by resazurin microtiter plate assay. Type of data set: functional, organism-based. (Alamar Blue is a resazurin reagent that responds to reducing activity.)

The structures appear in SMILES notation. In brackets after ≈: the same amount, converted by molar mass. Activity calls are given as the source filed them. The rule behind the calls is not given here.

As to `Cc1cn(C/C=C/CN2C(=O)c3cccc4cccc2c34)c(=O)[nH]c1=O`, the solubility in data set [1] was 640 µg/mL (≈ 1840 µM). In data set [2], the Ki was 420 nM.

On to `CC(=O)NC1Cc2cccc3c2n(c(=O)n3C/C=C/Cn2cc(C)c(=O)[nH]c2=O)C1` (stereo not drawn), for which the outcome in data set [3] was inactive. Also, the affinity in data set [2], expressed as Ki, was 5800 nM.

For the compound `O=c1[nH]c(=O)n(C/C=C/CN2c3cccc4c3N(CCC4)S2(=O)=O)cc1Br`, in data set [3], the result was inactive. For the same compound, in data set [2], the affinity, expressed as Ki, was 300 nM.

Consider `Cc1cn(C/C=C/CN2c3cccc4c3N(CCC4)S2(=O)=O)c(=O)[nH]c1=O`, for which the outcome in data set [3] was inactive. The same compound registered a Ki in data set [2] of 570 nM.

As for `Cc1cn(C/C=C/Cn2c(=O)n3c4c(cccc42)CC(N)C3)c(=O)[nH]c1=O` (stereo not drawn), the outcome in data set [3] was inactive. In data set [2], this compound showed an inhibition constant (Ki) of 7070 nM.

Take `CC(=O)Nc1cc2c3c(c1)n(C/C=C/Cn1cc(C)c(=O)[nH]c1=O)c(=O)n3CCC2`: the result in data set [3] was inactive. Further, in data set [2], affinity was put at a Ki of 930 nM.

For the compound `Cc1cn(C/C=C/Cn2c(=O)n3c4c(cc(N)cc42)CCC3)c(=O)[nH]c1=O`, the result in data set [3] was inactive. Further, the Ki in data set [2] came out at 2460 nM.

In data set [2], `Cc1cn(C/C=C/CN2c3cccc4cccc(c34)S2(=O)=O)c(=O)[nH]c1=O` displayed a Ki of 270 nM. This lies in the sub-micromolar range.

`Cc1cn([C@H]2C[C@H](O)[C@@H](COP(=O)(O)O)O2)c(=O)[nH]c1=O` [THYMIDINE MONOPHOSPHATE] came in with a Ki in data set [2] of 4500 nM.

For the compound `Cc1cn(C/C=C/Cn2c(=O)n3c4c(cccc42)CCC3)c(=O)[nH]c1=O`, the outcome in data set [3] was inactive. This compound also had a Ki in data set [2] of 1160 nM.

The solubility is the concentration that dissolves in the medium under given conditions. High values mean much dissolved substance, low ones little dissolved substance. A word on the Ki: it is the dissociation constant of the complex between target and ligand, obtained from inhibition or displacement. A high value points to weaker binding.
